Source: PubChem BioAssay (NCI)
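Briefly, cells in 96-well plates were exposed to five compound concentrations for 48 h, and endpoints were estimated by linear interpolation. TGI: total growth inhibition.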

How the values were obtained:
Assay in all cases: DTP human tumour cell line panel, 48 h
SNB-19 CNS = system: SNB-19 CNS
SF-539 CNS = system: SF-539 CNS
MOLT-4 leukemia = system: MOLT-4 leukemia
HOP-62 NSCLC = system: HOP-62 NSCLC
SK-MEL-5 melanoma = system: SK-MEL-5 melanoma
PC-3 prostate = system: PC-3 prostate
MCF7 breast = system: MCF7 breast
786-0 renal = system: 786-0 renal
ACHN renal = system: ACHN renal
OVCAR-3 ovarian = system: OVCAR-3 ovarian
OVCAR-8 ovarian = system: OVCAR-8 ovarian
K-562 leukemia = system: K-562 leukemia
MDA-MB-435 = system: MDA-MB-435
HCC-2998 colon = system: HCC-2998 colon
UACC-62 melanoma = system: UACC-62 melanoma
HT29 colon = system: HT29 colon
UACC-257 melanoma = system: UACC-257 melanoma
HL-60(TB) leukemia = system: HL-60(TB) leukemia
U251 CNS = system: U251 CNS
SR leukemia = system: SR leukemia
DU-145 prostate = system: DU-145 prostate
SW-620 colon = system: SW-620 colon
SK-MEL-28 melanoma = system: SK-MEL-28 melanoma
SK-MEL-2 melanoma = system: SK-MEL-2 melanoma
CAKI-1 renal = system: CAKI-1 renal
SK-OV-3 ovarian = system: SK-OV-3 ovarian
UO-31 renal = system: UO-31 renal
RXF 393 renal = system: RXF 393 renal
NCI/ADR-RES ovarian = system: NCI/ADR-RES ovarian
HCT-15 colon = system: HCT-15 colon
HS 578T breast = system: HS 578T breast
A549 NSCLC = system: A549 NSCLC
OVCAR-5 ovarian = system: OVCAR-5 ovarian
OVCAR-4 ovarian = system: OVCAR-4 ovarian
SN12C renal = system: SN12C renal
KM12 colon = system: KM12 colon
NCI-H23 lung = system: NCI-H23 lung
NCI-H522 lung = system: NCI-H522 lung
M14 melanoma = system: M14 melanoma
TK-10 renal = system: TK-10 renal
SF-268 CNS = system: SF-268 CNS
HCT-116 colon = system: HCT-116 colon
BT-549 breast = system: BT-549 breast
COLO 205 colon = system: COLO 205 colon
EKVX NSCLC = system: EKVX NSCLC
IGROV1 ovarian = system: IGROV1 ovarian
A498 renal = system: A498 renal
HOP-92 NSCLC = system: HOP-92 NSCLC
NCI-H226 lung = system: NCI-H226 lung
T-47D breast = system: T-47D breast
RPMI-8226 leukemia = system: RPMI-8226 leukemia
MDA-MB-231 breast = system: MDA-MB-231 breast
SF-295 CNS = system: SF-295 CNS
LOX IMVI melanoma = system: LOX IMVI melanoma
NCI-H460 lung = system: NCI-H460 lung
CCRF-CEM leukemia = system: CCRF-CEM leukemia
MDA-N = system: MDA-N
MALME-3M melanoma = system: MALME-3M melanoma
SNB-75 CNS = system: SNB-75 CNS

CC(C)(C)OC(=O)/C=C/[C@@H](CCC(=O)/C=C/[C@H](/C=C\CCCC(=O)O)NC1(c2ccccc2)c2ccccc2-c2ccccc21)O[Si](C)(C)C(C)(C)C
TGI (SNB-19 CNS): 41.8 µM
TGI (SF-539 CNS): 36.6 µM
TGI (MOLT-4 leukemia): > 100 µM
TGI (HOP-62 NSCLC): 36.5 µM
TGI (SK-MEL-5 melanoma): 36.8 µM
TGI (PC-3 prostate): 36.2 µM
TGI (MCF7 breast): 38.7 µM
TGI (786-0 renal): 33.3 µM
TGI (ACHN renal): 36.3 µM
TGI (OVCAR-3 ovarian): 32.9 µM
TGI (OVCAR-8 ovarian): 55 µM
TGI (K-562 leukemia): > 100 µM
TGI (MDA-MB-435): 48.7 µM
TGI (HCC-2998 colon): 32.5 µM
TGI (UACC-62 melanoma): 29.6 µM
TGI (HT29 colon): 30.1 µM
TGI (UACC-257 melanoma): 34.2 µM
TGI (HL-60(TB) leukemia): 86.1 µM
TGI (U251 CNS): 30.9 µM
TGI (SR leukemia): > 100 µM
TGI (DU-145 prostate): 32.6 µM
TGI (SW-620 colon): 81.6 µM
TGI (SK-MEL-28 melanoma): 69.6 µM
TGI (SK-MEL-2 melanoma): 30.1 µM
TGI (CAKI-1 renal): 67.8 µM
TGI (SK-OV-3 ovarian): > 100 µM
TGI (UO-31 renal): 29.8 µM
TGI (RXF 393 renal): 24.5 µM
TGI (NCI/ADR-RES ovarian): 32.6 µM
TGI (HCT-15 colon): 30.2 µM
TGI (HS 578T breast): 77.9 µM
TGI (A549 NSCLC): 37.2 µM
TGI (OVCAR-5 ovarian): 43.6 µM
TGI (OVCAR-4 ovarian): 53.9 µM
TGI (SN12C renal): 32.4 µM
TGI (KM12 colon): 43.5 µM
TGI (NCI-H23 lung): 36.6 µM
TGI (NCI-H522 lung): 34.6 µM
TGI (M14 melanoma): 29.4 µM
TGI (TK-10 renal): 52 µM
TGI (SF-268 CNS): 35.2 µM
TGI (HCT-116 colon): 30.2 µM
TGI (BT-549 breast): 33 µM
TGI (COLO 205 colon): 59 µM
TGI (EKVX NSCLC): 45.9 µM
TGI (IGROV1 ovarian): 35.5 µM
TGI (A498 renal): 34 µM
TGI (HOP-92 NSCLC): 16 µM
TGI (NCI-H226 lung): 40.3 µM
TGI (T-47D breast): 55.6 µM
TGI (RPMI-8226 leukemia): 85.1 µM
TGI (MDA-MB-231 breast): 28.4 µM
TGI (SF-295 CNS): 33.5 µM
TGI (LOX IMVI melanoma): 27.6 µM
TGI (NCI-H460 lung): 34.7 µM
TGI (CCRF-CEM leukemia): > 100 µM
TGI (MDA-N): 47.2 µM

CCOC1=NC(C(F)(F)F)(C(F)(F)F)N=C(/N=C(/N)N(C)C(C(C)C)P(=O)(OC(C)C)OC(C)C)O1 (centres undefined)
TGI (SNB-19 CNS): > 100 µM
TGI (SF-539 CNS): > 100 µM
TGI (MOLT-4 leukemia): 51.4 µM
TGI (MALME-3M melanoma): > 100 µM
TGI (HOP-62 NSCLC): > 100 µM
TGI (SK-MEL-5 melanoma): > 100 µM
TGI (PC-3 prostate): > 100 µM
TGI (MCF7 breast): > 100 µM
TGI (786-0 renal): > 100 µM
TGI (ACHN renal): > 100 µM
TGI (OVCAR-3 ovarian): > 100 µM
TGI (OVCAR-8 ovarian): > 100 µM
TGI (K-562 leukemia): > 100 µM
TGI (MDA-MB-435): > 100 µM
TGI (HCC-2998 colon): > 100 µM
TGI (UACC-62 melanoma): > 100 µM
TGI (HT29 colon): > 100 µM
TGI (UACC-257 melanoma): > 100 µM
TGI (HL-60(TB) leukemia): 80.1 µM
TGI (U251 CNS): > 100 µM
TGI (SR leukemia): > 100 µM
TGI (DU-145 prostate): > 100 µM
TGI (SW-620 colon): > 100 µM
TGI (SK-MEL-28 melanoma): > 100 µM
TGI (SK-MEL-2 melanoma): > 100 µM
TGI (CAKI-1 renal): > 100 µM
TGI (SK-OV-3 ovarian): > 100 µM
TGI (UO-31 renal): > 100 µM
TGI (RXF 393 renal): > 100 µM
TGI (NCI/ADR-RES ovarian): > 100 µM
TGI (HCT-15 colon): > 100 µM
TGI (HS 578T breast): > 100 µM
TGI (A549 NSCLC): > 100 µM
TGI (OVCAR-5 ovarian): > 100 µM
TGI (SN12C renal): > 100 µM
TGI (KM12 colon): > 100 µM
TGI (NCI-H23 lung): > 100 µM
TGI (NCI-H522 lung): 93.3 µM
TGI (M14 melanoma): > 100 µM
TGI (TK-10 renal): > 100 µM
TGI (SF-268 CNS): > 100 µM
TGI (HCT-116 colon): > 100 µM
TGI (BT-549 breast): > 100 µM
TGI (COLO 205 colon): > 100 µM
TGI (SNB-75 CNS): > 100 µM
TGI (EKVX NSCLC): > 100 µM
TGI (IGROV1 ovarian): > 100 µM
TGI (A498 renal): > 100 µM
TGI (NCI-H226 lung): > 100 µM
TGI (T-47D breast): > 100 µM
TGI (RPMI-8226 leukemia): > 100 µM
TGI (MDA-MB-231 breast): > 100 µM
TGI (SF-295 CNS): > 100 µM
TGI (LOX IMVI melanoma): > 100 µM
TGI (NCI-H460 lung): > 100 µM
TGI (CCRF-CEM leukemia): 83.5 µM
TGI (MDA-N): > 100 µM
